Results: patent US20050163737A1, “Deodorant cosmetic composition comprising a combination of zinc pidolate and an antiperspirant aluminum salt” (priority 2003, published 2005)

What was measured:
[1] = Deodorant efficacy test: odor intensity of incubated underarm sweat, expert panel; set-up: species or system human; conditions: 24 hours at 37° C, vs control sweat
Procedure: Protocol of the Deodorant Efficacy Test
Collections of underarm sweat were taken in a sauna from 6 volunteers; the samples of individual sweat, were stored in ice for a few hours, and were at this point virtually odorless. They were then mixed together and divided into 1 ml aliquots. The active agents were added to these aliquots, which were then incubated in an oven at 37° C. After incubation for 24 hours, a panel of experts evaluated the intensity of the odor in comparison with a control sample: 1 ml of sweat incubated without agent.
The results were expressed as a percentage of variation of the intensity of the odor in comparison with the control sweat sample (mean of the percentages of variation at T24h).

[2] = cited from earlier work

Row | Compound | % of Reduction in the Intensity of the Odor ([1]; 0.4 mg AM/ml of sweat (total)) | Solubility in water [2] | % of Reduction in the Intensity of the Odor ([1]; 0.1 mg AM/ml of sweat) | % of Reduction in the Intensity of the Odor ([1]; 0.2 mg AM/ml of sweat (total)) | % of Reduction in the Intensity of the Odor ([1]; 0.3 mg AM/ml of sweat)
1 | Oc1cc(Cl)ccc1Oc1ccc(Cl)cc1Cl [(B), 2,4,4′-trichloro-2′-hydroxydiphenyl ether] | −49% | insoluble | – | – | –
2 | zinc pidolate [(A)] | – | – | −47% | −47% | –
3 | zinc ricinoleate [(C)] | – | – | – | – | −4%
4 | aluminum chlorohydrate [ACH] | – | – | −37% | −47% | –
